Where two headings read alike, the source gives them in different places.
Key:
[1] = tested on: Z-138 cells; test: Z-138 Methylation Assay (In Cell Western for symmetric di-methyl arginine and DNA content); type: cell-based; details: Homo sapiens
Source text: Z-138 suspension cells were purchased from ATCC (American Type Culture Collection, Manassas, Va.). RPMI/Glutamax medium, penicillin-streptomycin, heat inactivated fetal bovine serum, and D-PBS were purchased from Life Technologies, Grand Island, N.Y., USA. Odyssey blocking buffer, 800CW goat anti-rabbit IgG (H+L) antibody, and Licor Odyssey infrared scanner were purchased from Licor Biosciences, Lincoln, Nebr., USA. Symmetric di-methyl arginine antibody was purchased from EMD Millipore, Billerica, Mass., USA. 16% Paraformaldehyde was purchased from Electron Microscopy Sciences, Hatfield, Pa., USA.
Z-138 suspension cells were maintained in growth medium (RPMI 1640 supplemented with 10% v/v heat inactivated fetal bovine serum and 100 units/mL penicillin-streptomycin) and cultured at 37° C. under 5% CO2.
Cell Treatment, in Cell Western (ICW) for Detection of Symmetric Di-Methyl Arginine and DNA Content.
Z-138 cells were seeded in assay medium at a concentration of 50,000 cells per mL to a 384-well cell culture plate with 50 μL per well. Compound (100 nL) from 384 well source plates was added directly to 384 well cell plate. Plates were incubated at 37° C., 5% CO2 for 96 hours. After four days of incubation, 40 μL of cells from incubated plates were added to poly-D-lysine coated 384 well culture plates (BD Biosciences 356697). Plates were incubated at room temperature for 30 minutes then incubated at 37° C., 5% CO2 for 5 hours. After the incubation, 40 μL per well of 8% paraformaldehyde in PBS (16% paraformaldahyde was diluted to 8% in PBS) was added to each plate and incubated for 30 minutes. Plates were transferred to a Biotek 405 plate washer and washed 5 times with 100 μL per well of wash buffer (1×PBS with 0.1% Triton X-100 (v/v)). Next 30 μL per well of Odyssey blocking buffer were added to each plate and incubated 1 hour at room temperature. Blocking buffer was removed and 20 μL per well of primary antibody was added (symmetric di-methyl arginine diluted 1:100 in Odyssey buffer with 0.1% Tween 20 (v/v)) and plates were incubated overnight (16 hours) at 4° C. Plates were washed 5 times with 100 μL per well of wash buffer. Next 20 μL per well of secondary antibody was added (1:200 800CW goat anti-rabbit IgG (H+L) antibody, 1:1000 DRAQS (Biostatus limited) in Odyssey buffer with 0.1% Tween 20 (v/v)) and incubated for 1 hour at room temperature. The plates were washed 5 times with 100 μL per well wash buffer then 1 time with 100 μL per well of water. Plates were allowed to dry at room temperature then imaged on the Licor Odyssey machine which measures integrated intensity at 700 nm and 800 nm wavelengths. Both 700 and 800 channels were scanned.
First, the ratio for each well was determined by:
Each plate included fourteen control wells of DMSO only treatment (minimum inhibition) as well as fourteen control wells for maximum inhibition treated with 3 μM of a reference compound (Background wells). The average of the ratio values for each control type was calculated and used to determine the percent inhibition for each test well in the plate. Reference compound was serially diluted three-fold in DMSO for a total of nine test concentrations, beginning at 3 μM. Percent inhibition was determined and IC50 curves were generated using triplicate wells per concentration of compound.

[2] = tested on: Z-138 cells; test: Z-138 Proliferation Assay (Cell Titer Glo, 5 days); type: cell-based; details: Homo sapiens, Table D-2
Source text: Z-138 Proliferation Assay
Z-138 suspension cells were purchased from ATCC (American Type Culture Collection, Manassas, Va.). RPMI/Glutamax medium, penicillin-streptomycin, heat inactivated fetal bovine serum were purchased from Life Technologies, Grand Island, N.Y., USA. V-bottom polypropylene 384-well plates were purchased from Greiner Bio-One, Monroe, N.C., USA. Cell culture 384-well white opaque plates were purchased from Perkin Elmer, Waltham, Mass., USA. Cell-Titer Gb® was purchased from Promega Corporation, Madison, Wis., USA. SpectraMax M5 plate reader was purchased from Molecular Devices LLC, Sunnyvale, Calif., USA.
Z-138 suspension cells were maintained in growth medium (RPMI 1640 supplemented with 10% v/v heat inactivated fetal bovine serum and cultured at 37° C. under 5% CO2. Under assay conditions, cells were incubated in assay medium (RPMI 1640 supplemented with 10% v/v heat inactivated fetal bovine serum and 100 units/mL penicillin-streptomycin) at 37° C. under 5% CO2.
For the assessment of the effect of compounds on the proliferation of the Z-138 cell line, exponentially growing cells were plated in 384-well white opaque plates at a density of 10,000 cells/ml in a final volume of 50 μl of assay medium. A compound source plate was prepared by performing triplicate nine-point 3-fold serial dilutions in DMSO, beginning at 10 mM (final top concentration of compound in the assay was 20 μM and the DMSO was 0.2%). A 100 nL aliquot from the compound stock plate was added to its respective well in the cell plate. […] After addition of compounds, assay plates were incubated for 5 days at 37° C., 5% CO2, relative humidity >90%.
Cell viability was measured by quantitation of ATP present in the cell cultures, adding 35 μl of Cell Titer Glo® reagent to the cell plates. Luminescence was read in the SpectraMax M5 microplate reader. The concentration of compound inhibiting cell viability by 50% was determined using a 4-parametric fit of the normalized dose response curves.

[3] = target: T1, PRMT5/MEP50 (Homo sapiens, UniProt O14744); test: PRMT5 Biochemical Assay (PRMT5/MEP50 enzyme assay on peptide substrate, 3H-SAM Flashplate); details: read-out: Biochemical IC50
T1 construct: Expressed full-length human Flag-PRMT5/6His-MeP50 protein complex was purified; made in house; host or cells: Spodoptera frugiperda (SF9) insect cells, baculovirus (pDEST8)
T1 sequence (O14744 with tags, fused parts or gaps): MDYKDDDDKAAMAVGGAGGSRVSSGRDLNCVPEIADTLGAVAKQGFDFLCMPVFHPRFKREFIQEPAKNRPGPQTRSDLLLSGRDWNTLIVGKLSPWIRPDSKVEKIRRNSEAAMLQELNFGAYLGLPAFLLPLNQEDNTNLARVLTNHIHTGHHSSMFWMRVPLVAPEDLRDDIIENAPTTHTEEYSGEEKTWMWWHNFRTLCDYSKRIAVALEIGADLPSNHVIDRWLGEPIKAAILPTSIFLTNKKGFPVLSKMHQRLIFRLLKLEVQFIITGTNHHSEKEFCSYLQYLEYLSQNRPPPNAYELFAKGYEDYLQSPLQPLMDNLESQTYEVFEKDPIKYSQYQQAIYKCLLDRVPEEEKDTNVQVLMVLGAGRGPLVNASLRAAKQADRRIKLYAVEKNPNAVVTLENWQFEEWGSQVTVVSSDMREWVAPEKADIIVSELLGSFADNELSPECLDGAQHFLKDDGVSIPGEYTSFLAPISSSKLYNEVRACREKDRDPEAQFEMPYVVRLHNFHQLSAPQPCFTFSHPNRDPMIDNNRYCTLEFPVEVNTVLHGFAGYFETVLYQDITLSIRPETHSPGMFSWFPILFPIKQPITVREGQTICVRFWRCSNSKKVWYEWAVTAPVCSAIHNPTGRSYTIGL
T1 sequence (Q9BQA1 with tags, fused parts or gaps partner limits assumed): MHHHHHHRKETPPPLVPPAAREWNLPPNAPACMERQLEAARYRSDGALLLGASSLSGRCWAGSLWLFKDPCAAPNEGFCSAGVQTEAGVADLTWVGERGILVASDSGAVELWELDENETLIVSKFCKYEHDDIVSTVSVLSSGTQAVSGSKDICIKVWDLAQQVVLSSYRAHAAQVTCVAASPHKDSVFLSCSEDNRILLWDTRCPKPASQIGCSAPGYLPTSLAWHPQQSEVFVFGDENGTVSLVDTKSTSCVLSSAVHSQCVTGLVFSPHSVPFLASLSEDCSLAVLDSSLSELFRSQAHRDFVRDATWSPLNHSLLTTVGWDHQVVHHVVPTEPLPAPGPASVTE

[4] = Table A-2, PRMT5/MEP50 4 nM, 3H-SAM 75 nM, peptide 40 nM
[5] = Table A-2, 96 hours, symmetric di-methyl arginine, read-out: ICW EC50

| Compound | EC50 ([1]; Table D-2, read-out: ICW EC50) [µM] | EC50 [2] [µM] | IC50 ([3]; Table D-2) [µM] | also measured |
| --- | --- | --- | --- | --- |
| Cn1cnc2ccc(-c3ccnc(NC[C@@H](O)CN4CCc5ccccc5C4)c3)cc21 [Compound D276] | 1 to 10 | 1 to 10 | – | – |
| N#CCc1cccc(-c2cccc(OCC(O)CN3CCc4ccccc4C3)c2)c1 (stereo not shown) [Compound D111] | 1 to 10 | – | 0.101 to 1 | – |
| CN(C)CCOc1ccccc1OCC(=O)NC[C@@H](O)CN1CCc2ccccc2C1 [Compound A89] | – | – | – | IC50 [3, 4]: 0.101 to 1 µM; EC50 [1, 5]: 1 to 10 µM |
| Cn1cnc2ccc(-c3cccc(OC[C@@H](O)CN4CCc5ccccc5C4)c3)cc21 [Compound D173] | 1 to 10 | 1 to 10 | – | – |
| O=C(NCC(O)CN1Cc2ccccc2C1)c1cccc(NC2CCOCC2)c1 (stereo not shown) [Compound E8.] | – | – | – | IC50 ([3]; Table E-2): 0.101 to 1 µM; EC50 ([1]; Table E-2, read-out: ICW EC50): 0.101 to 1 µM |
| O=C(COc1ccccc1S(=O)(=O)N1CCOCC1)NCC(O)CN1CCc2ccccc2C1 (stereo not shown) [Compound A149] | – | – | – | IC50 [3, 4]: < 0.1 µM; EC50 [1, 5]: 0.101 to 1 µM |
| Cn1ccnc1-c1ccccc1OCC(=O)NCC(O)CN1CCc2ccccc2C1 (stereo not shown) [Compound A138] | – | – | – | IC50 [3, 4]: 0.101 to 1 µM; EC50 [1, 5]: 1 to 10 µM |
| OC(COCC1CC1)CN1CCc2ccccc2C1 (stereo not shown) [Compound D303] | – | > 40 | 1 to 10 | – |
| CN1CCCCC1COCC(O)CN1CCc2ccccc2C1 (stereo not shown) [Compound D289] | – | > 40 | > 40 | – |
| Cc1nn(-c2ccccc2)c(C)c1COCC(O)CN1CCc2ccccc2C1 (stereo not shown) [Compound D28] | – | > 40 | 1 to 10 | – |
| O=C(Cc1cccc2cccnc12)NCC(O)CN1CCc2ccccc2C1 (stereo not shown) [Compound A60] | – | – | – | IC50 [3, 4]: 0.101 to 1 µM; EC50 [1, 5]: 1 to 10 µM |
| CC(C)(C)OC(=O)N1CCC(OCC(O)CN2CCc3ccccc3C2)CC1 (stereo not shown) [Compound D292] | – | > 40 | 1 to 10 | – |
| CC(C)(C)OC(=O)N1CCCC(OCC(O)CN2CCc3ccccc3C2)C1 (stereo not shown) [Compound D291] | – | > 40 | 1 to 10 | – |
| COc1cc(Cl)cc(-c2cccc(OCC(O)CN3CCc4ccccc4C3)c2)c1 (stereo not shown) [Compound D110] | > 20 | – | 0.101 to 1 | – |
| OC(COCc1c(Cl)cccc1Cl)CN1CCc2ccccc2C1 (stereo not shown) [Compound D280] | – | 10 to 40 | 1 to 10 | – |
| OC(COC1CCN(Cc2ccccc2)CC1)CN1CCc2ccccc2C1 (stereo not shown) [Compound D21] | – | > 40 | 1 to 10 | – |
| CC(C)n1ccc(-c2ccc(OCC(O)CN3CCc4ccccc4C3)cc2)n1 (stereo not shown) [Compound D27] | – | > 40 | 1 to 10 | – |
| CCn1ccnc1COCC(O)CN1CCc2ccccc2C1 (stereo not shown) [Compound D295] | – | > 40 | > 40 | – |
| Cn1cc2ccc(-c3cccc(OCC(O)CN4CCc5ccccc5C4)c3)cc2n1 (stereo not shown) [Compound D114] | > 20 | – | 0.101 to 1 | – |
| CCCCNCc1cccc(COCC(O)CN2CCc3ccccc3C2)c1 (stereo not shown) [Compound D286] | – | > 20 | 0.101 to 1 | – |
| O[C@H](COc1cccc(-c2cccc3cccnc23)c1)CN1CCc2ccccc2C1 [Compound D258] | 1 to 10 | > 20 | – | – |
| OC(COC1CCNC1)CN1CCc2ccccc2C1 (stereo not shown) [Compound D306] | – | > 40 | > 40 | – |
| Cn1cncc1C(=O)Nc1cccc(OC[C@H](O)CN2CCc3ccccc3C2)c1 [Compound D259] | 0.101 to 1 | 10 to 40 | – | – |

Source: patent publication US20150344457A1, “METHODS OF INHIBITING PRMT5” (EPIZYME, INC., priority 2012, published 2015)
